# Earlier results, collected in patent US7550154B2, “Methods of treatment with drug loaded polymeric materials” (Yale University, priority 2004, dated 2009).
compound,measurement,value
"COc1cccc2c1C(=O)c1c(O)c3c(c(O)c1C2=O)C[C@@](O)(C(=O)CO)C[C@@H]3O[C@H]1C[C@H](N)[C@H](O)[C@H](C)O1 [Dox, doxorubicin]",solubility in aqueous environments,limited solubility
